Experimental data published in EP0010209A1, “N-Benzoyl-retinyl amines, process for their preparation, pharmaceutical compositions comprising them and the use of these compounds for the therapy and prophylaxis of precanceroses and carcinomas of the skin” (BASF Aktiengesellschaft, priority 1978, dated 1980).

Tests used:
Brustkrebs bei Ratten = test: Prevention of nitrosomethylurea-induced mammary cancer in rats; assay type: in vivo, Sprague-Dawley Ratten; settings: nitrosomethylurea 50 mg/kg i.v., 2 mmol/kg diet from day 3, 12 weeks
tracheal cartilage = settings: toxicity to tracheal cartilage in vitro; from Nature 263, 110-113 (1976); read-out: celluläre Toxizitätsschwelle (Konzentration); cited from earlier work
[1] = tested on: durch Vitamin A-Hypovitaminose keratinisierten Hamstertrachealgewebe; settings: hamster tracheal tissue keratinised by vitamin A deficiency; active only at this concentration; cited from earlier work

Structure (SMILES) | Zahl der Tumoren (Brustkrebs bei Ratten; all tumours) | Zahl der Tumoren davon größer als 1,0 g (Brustkrebs bei Ratten; tumours > 1,0 g) | Zahl der Tumoren größer als 0,100 g (Brustkrebs bei Ratten; tumours > 0,100 g) | MCC (tracheal cartilage) [µM] | Konzentration, in der Aktivität vorliegt [1]
CC1=C(/C=C/C(C)=C/C=C/C(C)=C/CNC(=O)c2ccccc2)C(C)(C)CCC1 [Benzoyl-retinylamin, N-Benzoyl-all-E-Retinylamin] | 10 | 2 | 4 | – | –
CC(=O)NCC=C(C)C=CC=C(C)C=CC1=C(C)CCCC1(C)C [N-Acetyl-retinylamin] | – | – | – | > 10 | 9.10^-9 molar
